Data: patent US4818816A, “Process for the organic synthesis of oligosaccharides and derivatives thereof” (Choay, S.A., priority 1981, dated 1989)

How the values were obtained:
Xa factor [1] = assay: anti-Xa activity, Yin-Wessler test; assay type: biochemical
AT III = assay: affinity for AT III; assay type: binding
Xa factor [2] = assay: anti-Xa test using a chromogen substrate (method of Teien A.M. and Lie modified); assay type: biochemical; conditions: Xa factor (Sigma) 8 u/ml, substrate 1.33 mM, diluted human plasma, 37° C.
Experimental: In a test using a chromogen substrate, this activity has even been 4000 anti-Xa units/mg (method of Teien A.M. and Lie modified; Thrombosis Research No. 10, 1977, 388-410).
This test consists of using the Xa factor marketed by the Sigma company in solution at 8 u/ml in physiological serum, the concentration of the substrate being 1.33 mM.
To carry out this test it is possible to proceed as follows.
10 μl of solution to be determined and 300 μl of human plasma diluted with Tris maleate buffer 0.02M, […] are mixed.
It is left to incubate one minute at 37° C.
100 μl of the above-said Xa factor (8 u/ml) are added and one minute later, the solution obtained is injected into the substrate.

blood coagulation = assay: APTT test, overall anticoagulant activity

Question: With `O=C(O)[C@H]1O[C@@H](O[C@H]2[C@H](OS(=O)(=O)O)[C@@H](NS(=O)(=O)O)C(O)O[C@@H]2COS(=O)(=O)O)[C@H](O)[C@@H](O)[C@@H]1O[C@H]1O[C@H](COS(=O)(=O)O)[C@@H](O)[C@H](O)[C@H]1NS(=O)(=O)O` (stereo partly shown) as the compound, how does the “anti-Xa activity (Yin-Wessler)” value (Xa factor [1]) read?
Answer: The value was ~7 u/mg.

Question: Which results are given for `O=C(O)[C@H]1O[C@@H](O[C@H]2[C@H](OS(=O)(=O)O)[C@@H](NS(=O)(=O)O)[C@@H](O[C@H]3[C@H](O)[C@@H](OS(=O)(=O)O)[C@H](O[C@H]4[C@H](O)[C@@H](NS(=O)(=O)O)C(O)O[C@@H]4COS(=O)(=O)O)O[C@H]3C(=O)O)O[C@@H]2COS(=O)(=O)O)[C@H](O)[C@@H](O)[C@@H]1O[C@H]1O[C@H](COS(=O)(=O)O)[C@@H](O)[C@H](O)[C@H]1NS(=O)(=O)O` (stereo partly shown) [pentasaccharide 50]?
Answer: affinity for AT III (AT III): high affinity; anti-Xa activity in a test using a chromogen substrate (Xa factor [2]): 4000 anti-Xa units/mg; overall anticoagulant activity (APTT test) (blood coagulation): 4 u/mg; anti-Xa activity (Yin-Wessler) (Xa factor [1]): ≥ 2000 u/mg; Yin-Wessler titres compared with those of heparin (Xa factor [1]; compared with heparin): distinctly higher; selective inhibition activity of the activated X factor or Xa factor of the blood (Xa factor [1]; test not specified): very high selective inhibition activity
